Experimental findings from patent US20080255080A1, “Hydroquinone Ansamycin Formulations” (priority 2007, published 2008) are described below.

The data set can be described thus: Solubility in aqueous solutions. Format: physicochemical. The procedure: The hydroquinones provided herein may be converted into salt form by reaction with an acid, or by reaction with an acid halide of an amino acid. In the examples, the C-17 alkyl amino group is protonated to generate a C-17 ammonium salt hydroquinone geldanamycin analog. In addition, the C-17 ammonium salt hydroquinones formed have the added benefit of being highly soluble in aqueous solutions (solubility >200 mg/mL), unlike 17-AAG (solubility <100 μg/mL).

A word on the solubility: it is the dissolved amount per volume that the medium holds. Read a high solubility as much dissolved substance. In turn, `C=CCNC1=C2C[C@@H](C)C[C@H](OC)[C@H](O)[C@@H](C)/C=C(\C)[C@H](OC(N)=O)[C@@H](OC)/C=C\C=C(/C)C(=O)NC(=CC1=O)C2=O` [Compound 17-AAG] had a solubility of under 100 µg/mL.
